US9932300B2, “N,N′-diarylurea compounds and N,N′-diarylthiourea compounds as inhibitors of translation initiation” (President and Fellows of Harvard College, priority 2009, dated 2018)
Peptide text beside a SMILES is read from it.

system: eIF2-GTP-Met-tRNAi ternary complex; assay: Ternary complex assay (dual luciferase, firefly/renilla ratio) in stable KLN-tTA/pBISA-DL(ATF-4) cells; HTS and hit confirmation; assay type: cell-based, mouse; conditions: anti-cancer agents at 20 μM, ternary complex assay

Compound | Relative F-luc/R-luc Ratio (+/− SEM)
CC(C)Cn1c(=O)n(C)c(=O)c2[nH]cnc21 [Compound 3-isobutyl-1-methylxanthine] | 1.1 + 0.2
CCCCCCCCCC(=O)NC(CN1CCOCC1)C(O)c1ccccc1 (stereo not drawn) [Threo-1-phenyl] | 1.5 + 0.4
CC[C@@]1(O)C(=O)OCc2c1cc1n(c2=O)Cc2cc3ccccc3nc2-1 [Camptothecin] | 1.3 + 0.3
Clc1ccccc1C(c1ccccc1)(c1ccccc1)n1ccnc1 [CLT, clotrimazole, reference compound] | 6 + 1.1
C=C1[C@@H](O)[C@@H]2O[C@]3(CC[C@H](/C=C/[C@@H](C)[C@@H]4CC(C)=C[C@@]5(O[C@H](C[C@@](C)(O)C(=O)O)CC[C@H]5O)O4)O3)CC[C@H]2O[C@@H]1[C@@H](O)C[C@H](C)[C@H]1O[C@@]2(CCCCO2)CC[C@H]1C [Okadaic acid] | 1 + 0.3
CO[C@@]12[C@H](COC(N)=O)C3=C(C(=O)C(C)=C(N)C3=O)N1C[C@@H]1N[C@@H]12 [Mitomycin C] | 0.9 + 0.3
CC(=O)O.NCC(=O)N[C@@H](Cc1c[nH]cn1)C(=O)O [Glycyl-1-histidyl acetate] (H-Gly-His-OH) | 1 + 0.1
COc1ccc([C@@H]2Sc3ccccc3N(CCN(C)C)C(=O)[C@@H]2OC(C)=O)cc1 [Dilthiazem] | 1.4 + 0.4
COc1cc2c(c(OC)c1OC)-c1ccc(OC)c(=O)cc1[C@@H](NC(C)=O)CC2 [Colchicine] | 1.2 + 0.3
N=C(N)NC(=O)c1nc(Cl)c(N)nc1N [Amiloride] | 1.1 + 0.3
O=c1[nH]cc(F)c(=O)[nH]1 [Compound 5-fluorouracil, 5-fluorouracil] | 1 + 0.2
COc1cc([C@@H]2c3cc4c(cc3[C@@H](O[C@@H]3O[C@@H]5CO[C@@H](C)O[C@H]5[C@H](O)[C@H]3O)[C@H]3COC(=O)[C@H]23)OCO4)cc(OC)c1O [etoposite, reference compound] | 1 + 0.2

system: eIF2-GTP-Met-tRNAi ternary complex; assay: Ternary complex / ATF-4 dual luciferase assay in human cancer cell lines co-transfected with tTA and pBISA-DL(ATF-4) (CRL-2351, PC-3, CRL-2813); assay type: cell-based; conditions: CRL-2351 cell line
Protocol: FIGS. 8A-8D depict that N,N′-diarylureas reduce the availability of the eIF2-GTP-Met-tRNAi ternary complex in human cancer cells. A-C) PC-3, CR-L2351, and CRL-2813 human cancer cell lines were co-transfected with pBISA-DL^(ATF-4) and ptTA plasmids. One day post-transfection, the cells were treated with the indicated concentrations of N,N′-diarylureas. Firefly/renilla ratio was determined by DLR assay 8 hours after treatment. D) PC-3, CR-L2351, and CRL-2813 human cancer cell lines were treated with the indicated concentrations of N,N′-diarylureas four 8 hours, and expression of endogenous CHOP mRNA was determined by real-time PCR.
For example, reducing amount of the ternary complex increases translation of ATF-4, which results in elevated expression of CHOP mRNA and protein. Therefore, expression of endogenous CHOP mRNA and CHOP protein in KLN-tTA/pBISA-DL^(ATF-4) cells were utilized as secondary assays to validate N,N′-diarylurea compounds as modifiers of the eIF2⋅GTP⋅Met-tRNAi ternary complex. […] To rule out the possibility that the activity of N,N′-diarylurea compounds was confined to a single cell type, the effects of these compounds on the ternary complex assay and the expression of CHOP mRNA was assayed in CRL-2351, PC-3, CRL-2813 human breast, prostate, and melanoma cancer cell lines respectively. For the reporter gene assay, the three human cell lines were co-transfected with tTA expression vector and the pBISA-DL^(ATF-4) dual luciferase expression vector shown in FIG. 6. […] The expression of CHOP mRNA was assayed by real time PCR in the same cell lines treated with 5 or 20 μM of each compound. […]
Stable and transient transfection: Cells were seeded at the density of 10^5 in 60-mm (stable transfection) or 10^4 cells per well of 96-well plate (transient transfection) plates and transfected one day later using the Qiagen Transfectamine transfection kit. For selection of stable cell lines, transfected cells were transferred to 100-mm plates and selected with appropriate antibiotics.
Dual luciferase assay: Cells or minced tumors expressing firefly and renilla luciferases were lysed and the extracts assayed with a glow type dual luciferase assay kit, per manufacturer's instruction (Promega Inc., Madison, Wis.).

Compound | ATF-4 Cmax (concentration corresponding to the maximal activity) [µM]
Cc1ccc(NC(=O)Nc2cc(C(F)(F)F)cc(C(F)(F)F)c2)cc1OCCN(C)C [Compound 13, 3-[3,5-bis(trifluoromethyl)phenyl]-1-{3-[2-(dimethylamino)ethoxy]-4-methylphenyl}urea] | 10
Cc1ccc(NC(=O)Nc2ccc(Cl)c(Cl)c2)cc1OCCN1CCNCC1 [Compound 23, 4-[2-(5-{[(3,4-dichlorophenyl)carbamoyl]amino}-2-methylphenoxy)ethyl]piperazine-1,4-diium dichloride] | 10
Cc1ccc(NC(=O)Nc2ccc(Cl)c(C(F)(F)F)c2)cc1O [Compound 5, 3-[4-chloro-3-(trifluoromethyl)phenyl]-1-(3-hydroxy-4-methylphenyl)urea] | 10
COc1cc(NC(=O)Nc2ccc(Cl)c(C(F)(F)F)c2)ccc1C [Compound 8] | 10
Cc1ccc(NC(=O)Nc2cc(C(F)(F)F)cc(C(F)(F)F)c2)cc1OCCN1CCNCC1 [Compound 25, 4-{2-[5-({[3,5-bis(trifluoromethyl)phenyl]carbamoyl}amino)-2-methylphenoxy]ethyl}piperazine-1,4-diium dichloride] | 10
Cc1ccc(NC(=O)Nc2cc(C(F)(F)F)cc(C(F)(F)F)c2)cc1OCCN1CCOCC1 [Compound 17, 3-[3,5-bis(trifluoromethyl)phenyl]-1-{4-methyl-3-[2-(morpholin-4-yl)ethoxy]phenyl}urea] | 10
O=C(Nc1ccc(Cl)c(Cl)c1)Nc1ccc(Cl)c(Cl)c1 [Compound 1, 1,3-bis(3,4-dichlorophenyl)urea] | 5
Cc1ccc(NC(=O)Nc2ccc(Cl)c(C(F)(F)F)c2)cc1OCCN(C)C [Compound 12, 3-[4-chloro-3-(trifluoromethyl)phenyl]-1-{3-[2-(dimethylamino)ethoxy]-4-methylphenyl}urea] | 10
Cc1ccc(NC(=O)Nc2ccc(Cl)c(Cl)c2)cc1OCCN1CCOCC1 [Compound 15, 3-(3,4-dichlorophenyl)-1-{4-methyl-3-[2-(morpholin-4-yl)ethoxy]phenyl}urea] | 10
O=C(Nc1ccc(Cl)c(C(F)(F)F)c1)Nc1ncccc1O [Compound 27] | 40
Cc1ccc(NC(=O)Nc2ccc(Cl)c(C(F)(F)F)c2)cc1OCCN1CCOCC1 [Compound 16, 3-[4-chloro-3-(trifluoromethyl)phenyl]-1-{4-methyl-3-[2-(morpholin-4-yl)ethoxy]phenyl}urea] | 10
Cc1ccc(NC(=O)Nc2ccc(Cl)c(Cl)c2)cc1O [Compound 4, 3-(3,4-dichlorophenyl)-1-(3-hydroxy-4-methylphenyl)urea] | 20
Cc1ccc(NC(=O)Nc2cc(C(F)(F)F)cc(C(F)(F)F)c2)cc1O [Compound 6, 3-[3,5-bis(trifluoromethyl)phenyl]-1-(3-hydroxy-4-methylphenyl)urea] | 5
Cc1ccc(NC(=O)Nc2ccc(Cl)c(Cl)c2)cc1OCCN(C)C [Compound 11, 3-(3,4-dichlorophenyl)-1-{3-[2-(dimethylamino)ethoxy]-4-methylphenyl}urea] | 20
O=C(Nc1ccc(Cl)c(Cl)c1)Nc1ncccc1O [Compound 26] | 40
O=C(Nc1cc(C(F)(F)F)cc(C(F)(F)F)c1)Nc1cc(C(F)(F)F)cc(C(F)(F)F)c1 [Compound 3, 1,3-bis[3,5-bis(trifluoromethyl)phenyl]urea] | 2.5
COc1cc(NC(=O)Nc2cc(C(F)(F)F)cc(C(F)(F)F)c2)ccc1C [Compound 9] | 20
O=C(Nc1ccc(Cl)c(C(F)(F)F)c1)Nc1ccc(Cl)c(C(F)(F)F)c1 [Compound 2, 1,3-bis[4-chloro-3-(trifluoromethyl)phenyl]urea] | 2.4

system: eIF2-GTP-Met-tRNAi ternary complex; assay: Ternary complex assay (dual luciferase, firefly/renilla ratio) in stable KLN-tTA/pBISA-DL(ATF-4) cells; HTS and hit confirmation; assay type: cell-based, mouse; set-up: Activity 10 uM / Activity 2.5 uM / Activity 5 uM: unit not given here; conditions: KLN-tTA/pBISA-DL(ATF-4) colonies, assay validation

Compound | Effect on firefly/renilla luciferase ratio
COc1cc([C@@H]2c3cc4c(cc3[C@@H](O[C@@H]3O[C@@H]5CO[C@@H](C)O[C@H]5[C@H](O)[C@H]3O)[C@H]3COC(=O)[C@H]23)OCO4)cc(OC)c1O [etoposite, reference compound] | no effect

same assay, conditions: compound at 2.5 uM; confirmed hits of the screen (Table 5)

Compound | Activity 2.5 uM
C[C-]=O.[C-]#[O+].[C-]#[O+].[Mn].c1ccc(P(CCP(c2ccccc2)c2ccccc2)CCP(c2ccccc2)c2ccccc2)cc1 [Compound 634842] | 1.71
CC(=O)NC1=CC(=O)C=CC1=Nc1ccc(N(C)C)cc1C [Compound 14739] | 1.12

same assay, conditions: compound at 5 uM; confirmed hits of the screen (Table 5)

Compound | Activity 5 uM
CCOC(=O)C1CCc2c(ccc3ccccc23)N1 (stereo not drawn) [Compound 204931] | 3.1

same assay, conditions: compound at 10 uM; confirmed hits of the screen (Table 5)

Compound | Activity 10 uM
C[C-]=O.[C-]#[O+].[C-]#[O+].[Mn].c1ccc(P(CCP(c2ccccc2)c2ccccc2)CCP(c2ccccc2)c2ccccc2)cc1 [Compound 634842] | 8.37
CCOC(=O)C1CCc2c(ccc3ccccc23)N1 (stereo not drawn) [Compound 204931] | 3.539
CC(=O)NC1=CC(=O)C=CC1=Nc1ccc(N(C)C)cc1C [Compound 14739] | 4.06

system: eIF2-GTP-Met-tRNAi ternary complex; assay: Ternary complex activity (cell line not stated); assay type: cell-based; conditions: not given

Compound | Maximum effect (Emax, fold over control) | Maximum effective dose Cmax [µM]
COc1cc(N(C)C(=O)Nc2cc(C(F)(F)F)cc(C(F)(F)F)c2)ccc1C | Inactive | –
Cc1ccc(N(C)C(=O)Nc2cc(C(F)(F)F)cc(C(F)(F)F)c2)cc1O | 8.5 fold over control | 80
CN(C(=O)Nc1cc(C(F)(F)F)cc(C(F)(F)F)c1)c1cc(C(F)(F)F)cc(C(F)(F)F)c1 | 13 fold over control | 10
